Nc1cccc2c(N)cccc12
solubility (mole fraction)
Settings | 273.15 K | 278.15 K | 283.15 K | 288.15 K | 293.15 K | 298.15 K | 303.15 K | 308.15 K | 313.15 K
in acetonitrile | 0.00186 | 0.00238 | 0.00305 | 0.00382 | 0.00477 | 0.00577 | 0.00695 | 0.00834 | 0.00983
in ethyl acetate | 0.00404 | 0.00487 | 0.00569 | 0.00662 | 0.00759 | 0.00869 | 0.00992 | 0.0113 | 0.0128
in isopropanol | 0.000471 | 0.000564 | 0.000684 | 0.000807 | 0.000947 | 0.0011 | 0.00126 | 0.00144 | 0.00163
in methanol | 0.00112 | 0.00132 | 0.00154 | 0.00181 | 0.00209 | 0.0024 | 0.00278 | 0.0032 | 0.00369
in n-propanol | 0.00064 | 0.000762 | 0.000895 | 0.00105 | 0.00122 | 0.00142 | 0.00165 | 0.00192 | 0.00224
in toluene | 0.000262 | 0.000345 | 0.000445 | 0.00056 | 0.000689 | 0.00084 | 0.00102 | 0.0012 | 0.0014

Nc1cccc2cccc(N)c12
solubility (mole fraction)
Settings | 273.15 K | 278.15 K | 283.15 K | 288.15 K | 293.15 K | 298.15 K | 303.15 K | 308.15 K | 313.15 K
in acetonitrile | 0.0518 | 0.065 | 0.0798 | 0.0966 | 0.116 | 0.139 | 0.166 | 0.197 | 0.231
in ethyl acetate | 0.0765 | 0.091 | 0.107 | 0.127 | 0.152 | 0.179 | 0.212 | 0.252 | 0.295
in isopropanol | 0.0221 | 0.0277 | 0.0338 | 0.0407 | 0.0491 | 0.0588 | 0.0688 | 0.0807 | 0.0936
in methanol | 0.018 | 0.0219 | 0.0267 | 0.0327 | 0.0391 | 0.0467 | 0.0551 | 0.0647 | 0.0754
in n-propanol | 0.0385 | 0.0484 | 0.0594 | 0.0718 | 0.0868 | 0.103 | 0.121 | 0.142 | 0.166
in toluene | 0.0423 | 0.0512 | 0.0654 | 0.0803 | 0.0966 | 0.117 | 0.138 | 0.163 | 0.189
